In patent US8008354B2, “Death receptor sensitizing compounds and methods of use therefor” (Burnham Institute for Medical Research, priority 2006, dated 2011):

Tests used:
[1] = test system: PC-3, DU-145, LNCaP, T47D, MB-MDA-468 and OVCAR-3 cells; assay: Anoikis of additional malignant cell lines: colony formation after suspension culture; assay type: cell-based
Method: (§1) FIG. 14. Tumor cell sensitivity to anoikis correlates with sensitivity to Fas-mediated apoptosis. PC-3, DU-145, and LNCaP prostate, T47D and MB-MDA-468 breast, and OVCAR-3 ovarian cancer cells were cultured under adherent conditions with increasing concentrations of 5809354, in the presence or absence of Fas-activating antibody (CH-11, 100 ng/mL). Thirty hours after incubation, cell viability was determined using the MTS assay. Cell lines were also cultured under suspension conditions in the presence or absence of 5809354. Thirty hours after incubation, equal volumes of suspension-cultured cells were replated in a colony formation assay. Data represents the mean±SEM percent of viable cells or colonies compared to untreated controls.
(§2) Cell viability apoptosis, colony formation, and caspase activation assays. Cell viability was assessed using the MTS reduction assay (Promega, Madison, Wis., USA) according to the manufacturer's protocols and as described in Schimmer et al. (2006). Apoptosis was measured by flow cytometry to detect cell surface annexin V expression and propidium iodide (PI) uptake (Biovision, Mountain View, Calif., USA) as described in Carter et al. (2005). […] Clonogenic growth after suspension culture was measured using colony formation assays. […] Colonies were fixed, stained with methylene blue, and counted. […]

[2] = test system: PC-3, DU-145, LNCaP, T47D, MB-MDA-468 and OVCAR-3 cells; assay: MTS viability of additional malignant cell lines under adherent conditions with or without CH-11; assay type: cell-based
Method: as §1, §2

dsRed-PPC-1 cells = assay: In vivo survival and growth of pre-treated dsRed-PPC-1 cells injected into SCID mice
Method: FIG. 16. Decreases in cellular FLIP levels by siRNA diminishes the in vivo survival and growth of circulating prostate cancer cells. (A) Fluorescent dsRed-PPC-1 cells were transfected in culture with anti-FLIP siRNA (siFLIP, 25 nM) or control siRNA (siCtrl, 25 nM). Eight hours after transfection cells were harvested and 3.5×10^6 viable cells were injected into the tail veins of sublethally irradiated SCID mice. Five weeks after injection, or when mice became moribund, mice were sacrificed and their organs imaged using a fluorescent microscope (n=9). Representative images of tumor formation in the lung, bone, and liver are shown. (B) The total number and area of distant tumors from mice described above were quantified using image analysis software. Tumors were quantified from all five lobes of the lungs. Data points represent measurements from each mouse. Differences in the number and area of tumors are significant by the rank sum test. The bar represents the median of the population. Measurements were completed on unaltered images.
FIG. 17. Decreases in cellular FLIP levels by 5809354 diminishes the in vivo survival and growth of circulating prostate cancer cells. (A) Fluorescent dsRed-PPC-1 cells were treated in culture with 5809354 (30 μM) or buffer control. Sixteen hours after treatment cells were harvested and 3.5×10^6 viable cells were injected into the tail veins of sublethally irradiated SCID mice. Five weeks after injection, or when mice became moribund, mice were sacrificed and their organs imaged using a fluorescent microscope (n=8). Representative images of tumor formation in the lung, bone, and liver are shown. (B) The number and area of distant tumors from mice described above were quantified using image analysis software. Tumors were quantified from all five lobes of the lungs. Data points represent measurements from each mouse. Differences in the number and area of tumors are significant by the rank sum test. […]
In vivo studies. […] 3.5×10^6 viable cells (as measured by trypan blue exclusion assay) were either injected via the tail vein or subcutaneously into the hind limbs into sublethally irradiated (3.5 Gy) SCID mice (10 mice per treatment). […] Red fluorescent tumors were detected via whole body imaging and whole organ imaging using a Leica MZ FLIII fluorescent stereomicroscope with a 100 W mercury lamp, a 560/40 excitation filter, and a 610 long-pass emission filter. Images were acquired using a Leica DC350 digital camera at 0.8× magnification and analyzed using Image Pro Plus 6.0 (MediaCybernetics). A single common threshold was applied to identify and measure fluorescence in each organ (Cairns et al., 2004). The number of fluorescent spots and the corresponding pixel area were recorded for each lung lobe. All quantification was performed on unmanipulated images. […]

In the case of “4-(4-chloro-2-methylphenoxy)-N-hydroxybutanamide [compound 5809354]”, the sensitization to anoikis ([1]; LNCaP or MB-MDA-468 cells) is reported as “did not sensitize”, the sensitization to anoikis ([1]; PC-3 and DU-145 prostate, T47D breast and OVCAR-3 ovarian cancer cell lines) is reported as “sensitized” and the “sensitization to CH-11” value ([2]; LNCaP or MB-MDA-468 cells) is reported as “did not sensitize”. The “sensitization to CH-11-induced apoptosis” value ([2]; PC-3, DU-145, T47D and OVCAR-3 cell lines, CH-11 100 ng/mL) was “sensitized”, the Median survival (dsRed-PPC-1 cells; cells treated in culture (5809354 30 μM 16 hours; FLIP siRNA 25 nM 8 hours), injected into tail veins of sublethally irradiated SCID mice) was 32 days and the “tumor formation in lung, bone, and liver” value (dsRed-PPC-1 cells; intravenous injection of treated cells, five weeks or when moribund) was “decreased tumor formation”. The “median tumor number and median total tumor area within the lung” value (dsRed-PPC-1 cells; intravenous injection of treated cells, image-based analysis) was “decreased” and the “tumor weight after subcutaneous injection” value (dsRed-PPC-1 cells; subcutaneous injection of treated cells, 3 weeks (data not shown)) was “no difference”.
